In patent US20060063828A1 (priority 2004, published 2006):

What was measured:
VCAM-1 = assay: In Vitro VCAM-1 Assay (ELISA of VCAM-1 on TNF-α stimulated endothelial cells); format: cell-based; settings: Endothelial cell; primary human aortic (HAEC) or pulmonary (HPAEC) endothelial cells, TNF-α (1 ng/ml), approximately 16 hours
Protocol: Cell Culture and compound dosing: Cultured primary human aortic (HAEC) or pulmonary (HPAEC) endothelial cells were obtained from Clonetics, Inc., and were used below passage 9. Cells were seeded in 96 well plates such that they would reach 90-95% confluency by the following day. On the following day the cells were stimulated with TNF-α (1 ng/ml) in the presence or absence of compounds dissolved in DMSO such that the final concentration of DMSO is 0.25% or less. To establish a dose curve for each compound, four concentrations in 2- to 5-fold increments were used. Cells were exposed to TNF-α and compounds for approximately 16 hours. The next day the cells were examined under microscope to score for visual signs of toxicity or cell stress.
Following 16 hr exposure to TNF-α and compound the media was discarded and the cells were washed once with Hanks Balanced Salt Solution (HBSS)/Phosphate buffered saline (PBS) (1:1). Primary antibodies against VCAM-1 (0.25 μg/ml in HBSS/PBS+5% FBS) were added and incubated for 30-60 minutes at 37° C. Cells were washed with HBSS/PBS three times, and secondary antibody Horse Radish Peroxidase (HRP)-conjugated goat anti-mouse IgG (1:500 in HBSS/PBS+5% FBS) were added and incubated for 30 minutes at 37° C. Cells were washed with HBSS/PBS four time and TMB substrate were added and incubated at room temperature in the dark until there was adequate development of blue color. The length of time of incubation was typically 5-15 minutes. 2N sulfuric acid was added to stop the color development and the data was collected by reading the absorbance on a BioRad ELISA plate reader at OD 450 nm. The results are expressed as IC50 values (the concentration (micromolar) of compound required to inhibit 50% of the maximal response of the control sample stimulated by TNF-α only).

SMILES | IC50 (VCAM-1) [µM] | melting point
C=C(C(=O)c1c(OC)ccc(-c2cccs2)c1OC)c1ccc([N+](=O)[O-])cc1 [Example 41, 1-(2,6-Dimethoxy-3-thien-2-yl-phenyl)-2-(4-nitrophenyl)-propenone] | < 1 | 114 to 118 °C
C=C(C(=O)c1ccc(Nc2ncccn2)cc1)c1cc(-c2cccs2)ccc1OC [Example 22, 2-(2-Methoxy-5-thien-2-yl-phenyl)-1-[4-(pyrimidin-2-ylamino)-phenyl]-propenone] | < 1 | 154 to 155 °C
C=C(C(=O)c1c(C)cccc1C)c1ccccc1-c1cccs1 [Example 38, 1-(2,6-Dimethyl-phenyl)-2-(2-thien-2-yl-phenyl)-propenone] | < 10 | –
C=C(C(=O)c1c(OC)ccc(-c2cc3ccccc3s2)c1OC)c1cccc(OC(C)(C)C(=O)O)c1 [Example 45, 2-{3-[1-(3-Benzo[b]thien-2-yl-2,6-dimethoxy-benzoyl)-vinyl]-phenoxy}-2-methyl-propionic acid] | < 1 | 135 to 137 °C
C=C(C(=O)c1c(OC)ccc(-c2cccs2)c1OC)c1ccccc1OC [Example 31, 1-(2,6-Dimethoxy-3-thien-2-yl-phenyl)-2-(2-methoxy-phenyl)-propenone] | < 1 | –
C=C(C(=O)c1ccc(C(=O)O)cc1)c1cc(-c2cc3ccccc3s2)ccc1OC [Example 5, 4-[2-(5-Benzo[b]thien-2-yl-2-methoxy-phenyl)-acryloyl]-benzoic acid] | < 1 | 240 to 242 °C (dec.)
C=C(C(=O)c1c(OC)ccc(-c2cccs2)c1OC)c1ccc(C(F)(F)F)cc1 [Example 40, 1-(2,6-Dimethoxy-3-thien-2-yl-phenyl)-2-(4-trifluoromethyl-phenyl)-propenone] | < 1 | 102 to 105 °C
C=C(C(=O)c1ccc(C(=O)O)cc1)c1cc(-c2cccn2C(=O)OC(C)(C)C)ccc1OC [Example 3, 2-{3-[1-(4-Carboxy-benzoyl)-vinyl]-4-methoxy-phenyl}-pyrrole-1-carboxylic acid tert-butyl ester] | < 3 | 90 °C (dec.)
C=C(C(=O)c1ccc(C(=O)O)cc1)c1cc(-c2cccnc2)ccc1OC [Example 4, 4-[2-(2-Methoxy-5-pyridin-3-yl-phenyl)-acryloyl]-benzoic acid] | < 1 | 215 °C (dec.)
C=C(C(=O)c1c(OC)cccc1OC)c1ccc(C(=O)O)cc1-c1cccs1 [Example 36, 4-[1-(2,6-Dimethoxy-benzoyl)-vinyl]-3-thien-2-yl-benzoic acid] | < 3 | 192 to 195 °C
C=C(C(=O)c1ccc(NC(=O)c2ccno2)cc1)c1cc(-c2cccs2)ccc1OC [Example 27, Isoxazole-5-carboxylic acid {4-[2-(2-methoxy-5-thien-2-yl-phenyl)-acryloyl]-phenyl}-amide] | < 1 | 132.5 to 133.5 °C
C=C(C(=O)c1c(OC)ccc(-c2cccs2)c1OC)c1cc(C(C)(C)C)c(O)c(C(C)(C)C)c1 [Example 34, 2-(3,5-Di-tert-butyl-4-hydroxy-phenyl)-1-(2,6-dimethoxy-3-thien-2-yl-phenyl)-propenone] | > 10 | 130 to 132.5 °C
C=C(C(=O)c1cc(-c2cc3ccccc3s2)c(OC)cc1OC)c1ccc(F)cc1 [Example 47, 1-(5-Benzo[b]thien-2-yl-2,4-dimethoxy-phenyl)-2-(4-fluoro-phenyl)-propenone] | < 3 | 150 to 152 °C
C=C(C(=O)c1c(OC)cccc1OC)c1ccccc1-c1cccs1 [Example 43, 1-(2,6-Dimethoxy-phenyl)-2-(2-thien-2-yl-phenyl)-propenone] | < 3 | 70 to 73 °C
C=C(C(=O)c1ccc(NS(=O)(=O)c2c(C)noc2C)cc1)c1cc(-c2cccs2)ccc1OC [Example 26, 3,5-Dimethyl-isoxazole-4-sulfonic acid {4-[2-(2-methoxy-5-thien-2-yl-phenyl)-acryloyl]-phenyl}-amide] | < 3 | 176 to 179 °C
C=C(C(=O)c1ccc(Nc2ncccc2C(=O)OCC)cc1)c1cc(-c2cccs2)ccc1OC [Example 23, 2-{4-[2-(2-Methoxy-5-thien-2-yl-phenyl)-acryloyl]-phenylamino}-nicotinic acid ethyl ester] | < 3 | 149 to 151 °C
C=C(C(=O)c1c(C)cccc1C)c1cc(-c2cccs2)ccc1OC [Example 29, 1-(2,6-Dimethyl-phenyl)-2-(2-methoxy-5-thien-2-yl-phenyl)-propenone] | < 1 | –
C=C(C(=O)c1ccc(C(=O)O)cc1)c1c(OC)cc(-c2cccs2)cc1OC [Example 6] | < 1 | > 250 °C
C=C(C(=O)c1ccc(O)cc1)c1cc(-c2cccs2)ccc1OC [Example 17, 1-(4-Hydroxy-phenyl)-2-(2-methoxy-5-thien-2-yl-phenyl)-propenone] | < 1 | –
C=C(C(=O)c1c(C)cccc1C)c1ccccc1-c1cccnc1OC [Example 39, 1-(2,6-Dimethyl-phenyl)-2-[2-(2-methoxy-pyridin-3-yl)-phenyl]-propenone] | < 6 | –
C=C(C(=O)c1ccc(N(C)S(C)(=O)=O)cc1)c1cc(-c2cccs2)ccc1OC [Example 20, N-{4-[2-(2-Methoxy-5-thien-2-yl-phenyl)-acryloyl]-phenyl}-N-methyl-methanesulfonamide] | < 1 | –
C=C(C(=O)c1c(Cl)cccc1Cl)c1cc(-c2cccs2)ccc1OC [Example 7, 1-(2,6-Dichloro-phenyl)-2-(2-methoxy-5-thien-2-yl-phenyl)-propenone] | < 1 | –

Further lines, results first:

IC50 (VCAM-1) [µM] | melting point | SMILES
< 3 | 131 to 133 °C | C=C(C(=O)c1ccc(C(F)(F)F)cc1)c1cc(-c2cccs2)ccc1OC [Example 58, 2-(2-Methoxy-5-thien-2-yl-phenyl)-1-(4-trifluoromethyl-phenyl)-propenone]
< 3 | 130 to 132 °C | C=C(C(=O)c1ccc(C(C)(C)C)cc1)c1cc(-c2cccs2)ccc1OC [Example 57, 1-(4-tert-Butyl-phenyl)-2-(2-methoxy-5-thien-2-yl-phenyl)-propenone]
> 10 | 76 to 78 °C | C=C(C(=O)c1c(OC)ccc(-c2cccs2)c1OC)c1c(F)cccc1C(F)(F)F [Example 64, 1-(2,6-Dimethoxy-3-thien-2-yl-phenyl)-2-(2-fluoro-6-trifluoromethyl-phenyl)-propenone]
< 3 | 72 to 84 °C | C=C(C(=O)c1c(OC)cccc1OC)c1cc(-c2cccs2)ccc1OC(C)(C)C(=O)O [Example 66, 2-{2-[1-(2,6-Dimethoxy-benzoyl)-vinyl]-4-thien-2-yl-phenoxy}-2-methyl-propionic acid]
< 3 | 196 to 198 °C | C=C(C(=O)c1ccc(C(=O)O)cc1)c1cc(-c2cccs2)c(OC)cc1OC [Example 55, 4-[2-(2,4-Dimethoxy-5-thien-2-yl-phenyl)-acryloyl]-benzoic acid]
< 3 | 186 to 188 °C | C=C(C(=O)c1cccc(C(=O)O)c1)c1cc(-c2cccs2)ccc1OC [Example 56, 3-[2-(2-Methoxy-5-thien-2-yl-phenyl)-acryloyl]-benzoic acid]
< 1 | 162 to 163 °C | C=C(C(=O)c1c(OC)cccc1OC)c1cc(-c2cccs2)ccc1OC [Example 65, 1-(2,6-Dimethoxy-phenyl)-2-(2-methoxy-5-thien-2-yl-phenyl)-propenone]
< 6 | 156 to 157 °C | C=C(C(=O)c1ccc(C(=O)O)cc1)c1cc(OC)c(OC)c(-c2cccs2)c1 [Example 49, 4-[2-(3,4-Dimethoxy-5-thien-2-yl-phenyl)-acryloyl]-benzoic acid]
< 10 | 102 to 103 °C | C=C(C(=O)c1ccc(C(=O)OC)cc1)c1cc(OC)c(OC)c(-c2cccs2)c1 [Example 48, 4-[2-(3,4-Dimethoxy-5-thien-2-yl-phenyl)-acryloyl]-benzoic acid methyl ester]
< 1 | 192 to 194 °C | C=C(C(=O)c1ccc(C(=O)O)cc1)c1cc(-c2ccsc2)ccc1OC [Example 62, 4-[2-(2-Methoxy-5-thien-3-yl-phenyl)-acryloyl]-benzoic acid]
< 1 | – | C=C(C(=O)c1cc(-c2cccs2)ccc1OC)c1ccc(C(=O)O)cc1 [Example 54, 4-[1-(2-Methoxy-5-thien-2-yl-benzoyl)-vinyl]-benzoic acid]
< 3 | – | C=C(C(=O)c1cc(-c2cccs2)ccc1OC)c1ccc([N+](=O)[O-])cc1 [Example 52, 1-(2-Methoxy-5-thien-2-yl-phenyl)-2-(4-nitro-phenyl)-propenone]
< 1 | – | C=C(C(=O)c1ccc(C(=O)O)cc1)c1cc(-c2cccs2)ccc1OC(C)C [Example 59, 4-[2-(2-Isopropoxy-5-thien-2-yl-phenyl)-acryloyl]-benzoic acid]
